Data published in patent US20260364088A1, “TASL MIMICKING MOLECULES AND APPLICATIONS THEREOF” (CEMM - FORSCHUNGSZENTRUM FÜR MOLEKULARE MEDIZIN GMBH, priority 2022, published 2026).

Legend:
SLC15A4 = target: T1, SLC15A4 (Homo sapiens, UniProt Q8N697); experiment: Competition assay with V5-tagged N-terminal TASL fragments (V5 immunofluorescence); type: cell-based; details: TASL-V5 fragments of first 94 and 193 amino acids; 10 mM dTASL1, 24 h
T1 construct: transient TASL-V5 N-terminal fragments 1-94 and 1-193 (C-terminal V5) as partner
Protocol: For staining of fixed cells, 12 k cells/well were seeded in tissue culture-treated PhenoPlate 96-well plates (PerkinElmer) and incubated over-night. Cells were transfected with TASL-V5 fragments the next day and subsequently TASL-V5 expression was induced by addition of 1 μg/ml doxycycline and […] dTASL1 or an equivalent volume of DMSO respectively. Compound and doxycycline were added at the same time, to allow dTASL1 to occupy SLC15A4 binding sites in advance of TASL binding. Cells were fixed after 24 h of incubation for 10 min with 4% formaldehyde in PBS and permeabilized and blocked with 0.2% Triton X-100 (Sigma) and 5% FBS in PBS for 1 h. Cells were stained overnight at 4 °C with a mouse anti V5 primary antibody (Invitrogen) in blocking solution. Cells were washed 3 time in PBS and stained for 1.5 h with fluorescently labelled goat anti mouse Alexa-568 (Invitrogen) secondary antibody. […]
(§1) Encouraged by the fact that the chemical entity of the present invention was showing the desired behavior and specificity profile, it became important to better clarify the molecular basis of this uncommon mechanism of action, i.e interference with a highly specific protein interaction leading to degradation of a single complex component. The effect of dTASL1 on complex assembly was first monitored. […]

ΔN-SLC15A4-GFP = ΔN-SLC15A4-GFP (Homo sapiens, UniProt Q8N697); experiment: ΔN-SLC15A4-GFP levels and localization in HEK293T cells; type: cell-based; details: 10 µM, 24 h
Protocol: (§2) Cells transfected with TASL-V5 plasmid were stained for V5-tag and detected with deep red Alexa Fluor 647 secondary antibody to allow for selection in the presence of an mCherry reporter. Cells were measured either immediately after staining or in the case of live cells immediately after harvesting and washing with PBS. Data were acquired on a BD FACSCalibur (BD Biosciences) and analyzed with FlowJo software (version 10).
(§3) For live cell imaging cells were plated in PhenoPlate 96-well plates or Ibidi m-Slide 8 (Ibidi) wells at 16 k/well and incubated over-night. Then compounds were added, if indicated, and cells were imaged after 24 h of incubation. Cells were stained with LysoTracker Deep Red L12492 (ThermoFisher) and Hoechst 34580 (ThermoFisher). […] Images were analyzed with Fiji-ImageJ.
as §1

SLC15A4-GFP = SLC15A4-GFP (Homo sapiens, UniProt Q8N697); experiment: SLC15A4-GFP levels when expressed alone in HEK293T cells; type: cell-based; details: 10 µM, 24 h
Protocol: as §2, §3, §1

IRF5 = IRF5 nuclear translocation in CD19^+ B cells of PBMCs (confocal microscopy); type: cell-based, human; details: primary B cells, dTASL1 10 µM 24 h, R848 (5 μg/ml) 3 h, n=7
Protocol: PBMCs were treated for 24 h with DMSO or dTASL1 (10 µM) and thereafter stimulated with 5 μg/ml R848 (Invivogen) for three hours or left unstimulated. Cells were harvested and stained for 30 minutes with PE-conjugated anti-CD19 antibodies (BioLegend, #302254, 1:200 in PBS/2% FBS) on ice and fixed with 4% formaldehyde in PBS for 15 minutes at RT. Permeabilization and staining for NF-κB p65 and IRF5 and counterstaining was performed as for CAL-1 and cells were seeded at a concentration of 3×10^4 cells/well onto 384-well imaging plates. Images were acquired on a PerkinElmer Opera Phenix HCS spinning disc confocal microscope and analyzed as described above with the additional identification of B cells based on CD19 membrane staining intensity. This protocol also applies to the cells obtained from SLE patients.
Given that all evidence obtained seems to confirm the mechanistic precision of this chemical agent, any further consideration of assessing the therapeutic potential required evidence for activity in human primary cells relevant for SLE pathophysiology. The effect of dTASL1 in human peripheral blood mononuclear cells (PBMCs) was assessed. […] It has been previously shown that the SLC15A4-TASL module was required for TNF production in primary human monocytes. […] The impact of dTASL1 on TLR7/8 responses by directly monitoring IRF5 by confocal microscopy in B cells was assessed.

Sequence of SLC15A4-GFP (Q8N697 whole entry): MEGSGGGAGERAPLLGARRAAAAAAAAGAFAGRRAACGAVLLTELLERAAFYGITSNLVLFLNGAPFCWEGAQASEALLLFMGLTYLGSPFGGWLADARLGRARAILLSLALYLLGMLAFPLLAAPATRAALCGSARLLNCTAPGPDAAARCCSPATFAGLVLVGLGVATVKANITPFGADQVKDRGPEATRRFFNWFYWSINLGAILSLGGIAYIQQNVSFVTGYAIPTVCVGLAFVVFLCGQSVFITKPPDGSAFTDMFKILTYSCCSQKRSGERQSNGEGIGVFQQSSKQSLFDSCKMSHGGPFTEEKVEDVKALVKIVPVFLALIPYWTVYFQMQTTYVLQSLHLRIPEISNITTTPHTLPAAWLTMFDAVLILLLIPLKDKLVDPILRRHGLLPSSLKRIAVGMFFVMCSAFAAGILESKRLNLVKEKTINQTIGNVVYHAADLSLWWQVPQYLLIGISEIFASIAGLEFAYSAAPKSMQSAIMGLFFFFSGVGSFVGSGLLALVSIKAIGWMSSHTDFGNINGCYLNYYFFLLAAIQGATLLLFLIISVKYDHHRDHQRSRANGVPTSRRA
T1 sequence (Q8N697 whole entry, the tested form may be a part): as the sequence (Q8N697 whole entry) above
Sequence of ΔN-SLC15A4-GFP (Q8N697 whole entry, stated change not applied): as the sequence (Q8N697 whole entry) above

## CCOc1ccc(-c2cc(C(=O)NCCCN3CCCCC3C)c3ccccc3n2)cc1 (stereo not shown) [dTASL1, 2-(4-ethoxyphenyl)-N-(3-(2-methylpiperidin-1-yl)propyl) quinoline-4-carboxamide]
SLC15A4
  SLC15A4-localized V5 signal: reduce SLC15A4-localized V5 signal for both short TASL portions
ΔN-SLC15A4-GFP
  levels or localization of ΔN-SLC15A4-GFP: did not affect levels or localization of ΔN-SLC15A4-GFP
SLC15A4-GFP
  total levels of SLC15A4-GFP: did not affect total levels of SLC15A4-GFP
IRF5
  IRF5 nuclear translocation: significantly reduced IRF5 nuclear translocation
